# Laboratory results from patent publication US12570709B2, “Self-assembling peptide amphiphiles displaying a transforming growth factor beta 1 (TGF-ß1) mimetic epitope” (Northwestern University, priority 2021, dated 2026).
# Bridge positions count the residues as written; N and C are the ends. Ends that are not written are not given here. I, II: the chains in the order shown. * marks the point of attachment. Palmitoyl = CCCCCCCCCCCCCCCC(=O)*
# How the values were obtained:
# [1] = Cryo-TEM of PA nanostructures; type: physicochemical; details: 10 mol % co-assembly with diluent backbone PA
# Experimental: 300-mesh copper grids with lacey carbon film (Electron Microscopy Sciences) were glow discharged for 30 seconds in a PELCO easiGlow system (Ted Pella, Inc.). PA solutions were prepared as previously described and then diluted to 1 mM in water before imaging. 7 μL of PA solution was placed onto grids, blotted, and plunge-frozen in liquid ethane using an FEI Vitrobot Mark IV (FEI), maintained at 95-100% humidity. While submerged in liquid nitrogen, vitrified samples were transferred to a Gatan 626 cryo-holder (Gatan) and imaged on a JEOL 1230 TEM operating at 100 kV accelerating voltage. Liquid nitrogen temperatures were maintained during imaging, and micrographs were captured with a Gatan 832 CCD camera.
# [2] = system: human chondrocytes encapsulated in PA hydrogels; assay: F-actin ICC and confocal microscopy of chondrocytes encapsulated in PA gels; type: cell-based; details: three days in vitro
# Experimental: Fixed samples were permeabilized and blocked in a solution of 0.1% (v/v) Triton X-100 and 1% normal horse serum (Invitrogen) for 2 hours at room temperature. Samples were incubated with primary antibodies overnight at 4° C. The following primary antibodies were used: rabbit anti-Sox9 (1:500, Abcam), mouse anti-Aggrecan (1:500, ThermoFisher), mouse anti-Collagen II (1:500, ThermoFisher), and mouse anti-Nuclei (1:500, Sigma-Aldrich). The next day, samples were incubated with AlexaFluor 488 secondary antibody, AlexaFluor 555 secondary antibody, Phalloidin AlexaFluor 488, and/or Phalloidin AlexaFluor 633 (1:1000, Invitrogen) for 2-3 h at room temperature. For 2D cell culture, samples were then incubated with DAPI (1:1000, Invitrogen) for 10 minutes at room temperature. If not already on a glass coverslip, samples were mounted with Immu-Mount (Thermo Scientific) and imaged on a Nikon A1R Spectral microscope. Image analysis was performed using ImageJ software.
# Chondrocytes were trypsinized and resuspended in growth media for counting, and then pelleted and resuspended to 6×10^7 cells/mL in growth media. The cell solution was mixed 1:2 v/v with sterile PA solution prepared at 3 wt % in 30 mM NaCl. For gels also encapsulating rhTGF-β1 protein (R&D Systems), soluble protein was added to PA solutions after thermal annealing. 120 μL of PA/cell solution was mixed thoroughly by pipetting gently and then placed into PDL-coated 12-well chamber slides (Ibidi). Sterile gelling solution, comprised of 110 mM NaCl, 3 mM KCl, and 25 mM CaCl2, was pipetted dropwise on top of the PA/cell solution and the gels were incubated for 30 minutes at 37° C. Following incubation, excess gelling solution was removed and 250 μL of growth media was added to each well. The media was removed after 3 days for LDH viability assays as described above. For ICC, after 3 days of in vitro culture, gels were fixed in 4% paraformaldehyde for 30 minutes at room temperature.
# [3] = system: Smad2 phosphorylation (intracellular TGF-β1 signaling) in human chondrocytes; assay: Western blot of phosphorylated Smad2 after 4 h treatment; type: cell-based; details: for p-Smad2 activation: 50 μM, 4 h
# Experimental: For western blot of 4 h PA treatments, cells were seeded in 6-well plates at a density of 600,000 cells/well and cultured for 24 h. […] Cells were then treated with PA in solution for 4 h in vitro. For western blot of 3-day PA treatments, cells were seeded in 6-well plates at a density of 230,000 cells/well and cultured for 24 h. Cells were then treated with PA in solution for 3 days in vitro.
# Protein was extracted from cells using Halt Protease and Phosphatase Inhibitor Cocktail (Thermo Scientific) and a BCA assay (Thermo Scientific) was performed to determine protein content of each sample. Cell protein was loaded into and separated using a 4-20% SDS-PAGE gel (Bio-Rad). It was then electrotransferred from the gel to a nitrocellulose membrane (Bio-Rad). The membranes were blocked with 10% milk solution (Bio-Rad) for 30 minutes followed by an overnight incubation with primary antibodies at 4° C. The following primary antibodies were used: rabbit anti-pSmad2 (1:1000, Cell Signaling), rabbit anti-Smad2 (1:1000, Cell Signaling), rabbit anti-Sox9 (1:500, Abcam), mouse anti-Aggrecan (1:500, ThermoFisher), rabbit anti-COMP/Cartilage oligomeric matrix protein (1:500, Abcam), mouse anti-Collagen II (1:500, ThermoFisher), and mouse anti-Actin (1:1000, Novus Bio). Membranes were then incubated with their corresponding secondary HRP-conjugated antibodies (1:1000, ThermoFisher). Protein signals were detected using Radiance Bioluminescent ECL substrate (Azure Biosystems). Densitometry analysis, standardized to total receptor content or actin as a control for protein loading, was performed using ImageJ software. For quantification, experimental triplicate samples were analyzed, and two different experiments were conducted.
substance,measurement,setting,value
TGF PA-a: backbone PA-a (SEQ ID NO: 7) conjugated to cyclic TGF-β1 mimetic peptide (SEQ ID NO: 1) by a linker; co-assembled with diluent Backbone PA-a (chain Palmitoyl-AAEEK-OH; peptide CESPLKRQC; disulfide II:1-II:9; not fully specified (some residues); also: co-assembled with diluent backbone PA-a),width of ribbon-like nanostructures,[1],50-60 nm
same,morphology and distribution of encapsulated cells,[2],"compact, elliptical morphologies and were well-dispersed"
same,cells within the bulk of the gel,[2]; equal concentrations of cells encapsulated,remained inside the gels and survived three days in vitro
same,p-Smad2 activation,[3]; 10 mol % co-assemblies,upregulated p-Smad2 significantly more than all other PA treatments
same,p-Smad2 activation,[3]; 10 mol % co-assembly,strong p-Smad2 activation
same,activation of p-Smad2 with addition of pan-TGF-β-neutralizing antibody 1D11,[3]; with vs without 1D11,effectively neutralized
same,significance of the neutralizing effect of 1D11 on p-Smad2 activation,[3]; with vs without 1D11,statistically significant
